Experimental data from US9695155B2, “Herbicidal substituted pyrimidinyloxy benzene compounds” (E. I. DU PONT DE NEMOURS AND COMPANY, priority 2013, dated 2017).

Experiments:
ragweed = assay: Test C preemergence; type: in vivo, Ambrosia elatior; conditions: Ambrosia artemisiifolia, pre-emergence
Outline: (§1)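 Seeds were sown in loam–sand blend and sprayed preemergence, while plants at 1- to 4-leaf stage (2–18 cm) in peat-based medium received postemergence sprays; test chemicals were formulated in a non-phytotoxic solvent with surfactant. After 13–15 days in a greenhouse, injury was rated visually against controls, 0 (no effect) to 100 (complete control).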

yellow nutsedge = assay: Test C preemergence; type: in vivo, Cyperus esculentus; conditions: Cyperus, pre-emergence
Outline: as §1

kochia = assay: Test C postemergence; type: in vivo, Kochia scoparia; conditions: Bassia scoparia, post-emergence
Outline: as §1

wheat = assay: Test A preemergence; type: in vivo, Triticum aestivum
Outline: (§2)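 Injury scores run from 0, no effect, to 100, complete control, judged by eye against untreated plants roughly 10 days after treatment. Chemicals carried a surfactant in a non-phytotoxic solvent and went onto loam–sand soil preemergence or onto one- to two-leaf seedlings postemergence.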

large (Lg) crabgrass = assay: Test A postemergence; type: in vivo, Digitaria sanguinalis; conditions: 0 to 100 scale where 0 is no effect and 100 is complete control
Outline: as §2

morningglory = assay: Test C postemergence; type: in vivo, Ipomoea coccinea
Outline: as §1

pigweed [1] = assay: Test C preemergence; type: in vivo, Amaranthus retroflexus; conditions: Amaranthus retroflexus, pre-emergence
Outline: as §1

velvetleaf = assay: Test A postemergence; type: in vivo, Abutilon theophrasti; conditions: 0 to 100 scale where 0 is no effect and 100 is complete control
Outline: as §2

corn = assay: Test A postemergence; type: in vivo, Zea mays; conditions: Zea mays, post-emergence, 240 h, 0 to 100 scale where 0 is no effect and 100 is complete control
Outline: as §2

giant foxtail = assay: Test A postemergence; type: in vivo, Setaria faberii; conditions: Setaria faberi, post-emergence, 240 h, 0 to 100 scale where 0 is no effect and 100 is complete control
Outline: as §2

galium = assay: Test C postemergence; type: in vivo, Galium aparine; conditions: Galium, post-emergence
Outline: as §1

lambsquarters [2] = assay: Test C postemergence; type: in vivo, Chenopodium album
Outline: as §1

pigweed [3] = assay: Test A preemergence; type: in vivo, Amaranthus retroflexus
Outline: as §2

waterhemp = assay: Test C preemergence; type: in vivo, Amaranthus rudis; conditions: Amaranthus tuberculatus, pre-emergence
Outline: as §1

lambsquarters [4] = assay: Test C preemergence; type: in vivo, Chenopodium album; conditions: Chenopodium album, pre-emergence
Outline: as §1

[5] = 31 g ai/ha, postemergence, visual rating, scale 0 to 100 (0 no effect, 100 complete control), 13 to 15 days

`FC(F)c1cccc(Oc2ncc(Cl)cn2)c1-n1cc(Br)cn1` [Compound 194, 2-[2-(4-bromo-1H-pyrazol-1-yl)-3-(difluoromethyl)phenoxy]-5-chloropyrimidine] gave a pest or weed control at 125 g/ha (ragweed; 125 g ai/ha, preemergence, scale 0 (no effect) to 100 (complete control), read-out: Ragweed plant response rating) of 20%, a pest or weed control at 250 g/ha (ragweed; 250 g ai/ha, preemergence, scale 0 (no effect) to 100 (complete control), read-out: Ragweed plant response rating) of 75% and a pest or weed control at 62 g/ha (ragweed; Preemergence, 62 g ai/ha, scale 0 to 100, 0 no effect, 100 complete control, read-out: Plant response rating, Ragweed) of 10%. For the same compound, the pest or weed control at 125 g/ha (yellow nutsedge; 125 g ai/ha, preemergence, scale 0 (no effect) to 100 (complete control), read-out: Nutsedge, Yellow plant response rating) was 0%, the pest or weed control at 250 g/ha (yellow nutsedge; 250 g ai/ha, preemergence, scale 0 (no effect) to 100 (complete control), read-out: Nutsedge, Yellow plant response rating) was 25% and the pest or weed control at 62 g/ha (yellow nutsedge; Preemergence, 62 g ai/ha, scale 0 to 100, 0 no effect, 100 complete control, read-out: Plant response rating, Nutsedge, Yellow) was 0%. It also gave a pest or weed control at 31 g/ha (kochia; 31 g ai/ha, postemergence, visual rating, scale 0 to 100 (0 no effect, 100 complete control), 13 to 15 days, read-out: Kochia plant response rating) of 90%, a pest or weed control at 125 g/ha (kochia; 125 g ai/ha, postemergence, visual rating, scale 0 to 100 (0 no effect, 100 complete control), read-out: Plant response rating, Kochia) of 90% and a pest or weed control at 250 g/ha (kochia; 250 g ai/ha, postemergence, read-out: Plant response rating (0 to 100), Kochia) of 95%. For the same compound, the pest or weed control at 62 g/ha (kochia; Postemergence, 62 g ai/ha, scale 0 to 100 (0 no effect, 100 complete control), 13 to 15 days, read-out: Plant response rating, Kochia) was 90%, the “Wheat plant response rating (0 to 100 scale)” value (wheat; 125 g ai/ha) was 20 and the plant injury at 500 g/ha (wheat; Triticum aestivum, pre-emergence, 240 h, 500 g ai/ha, 0 to 100 scale where 0 is no effect and 100 is complete control, read-out: Wheat plant response rating) was 30%. For the same compound, the “Crabgrass, Large plant response rating” value (large (Lg) crabgrass; 125 g ai/ha) was 90, the pest or weed control at 500 g/ha (large (Lg) crabgrass; Digitaria sanguinalis, post-emergence, 240 h, 500 g ai/ha, read-out: Plant response rating, Crabgrass, Large) was 100% and the “Morningglory plant response rating” value (morningglory; [5]) was 50. For the same compound, the pest or weed control at 125 g/ha (morningglory; Ipomoea, post-emergence, 125 g ai/ha, postemergence, visual rating, scale 0 to 100 (0 no effect, 100 complete control), read-out: Plant response rating, Morningglory) was 80%, the pest or weed control at 250 g/ha (morningglory; Ipomoea, post-emergence, 250 g ai/ha, postemergence, read-out: Plant response rating (0 to 100), Morningglory) was 95% and the pest or weed control at 62 g/ha (morningglory; Ipomoea, post-emergence, Postemergence, 62 g ai/ha, scale 0 to 100 (0 no effect, 100 complete control), 13 to 15 days, read-out: Plant response rating, Morningglory) was 80%. It also gave a pest or weed control at 125 g/ha (pigweed [1]; 125 g ai/ha, preemergence, scale 0 (no effect) to 100 (complete control), read-out: Pigweed plant response rating) of 100%, a pest or weed control at 250 g/ha (pigweed [1]; 250 g ai/ha, preemergence, scale 0 (no effect) to 100 (complete control), read-out: Pigweed plant response rating) of 100% and a pest or weed control at 62 g/ha (pigweed [1]; Preemergence, 62 g ai/ha, scale 0 to 100, 0 no effect, 100 complete control, read-out: Plant response rating, Pigweed) of 100%. For the same compound, the “Velvetleaf plant response rating” value (velvetleaf; 125 g ai/ha) was 100, the pest or weed control at 500 g/ha (velvetleaf; Abutilon theophrasti, post-emergence, 240 h, 500 g ai/ha, read-out: Plant response rating, Velvetleaf) was 100% and the plant injury at 125 g/ha (corn; 125 g ai/ha, read-out: Corn plant response rating) was 30%. It also gave a Corn plant response rating (crop injury, 0 = no effect, 100 = complete kill) at 500 g/ha (corn; 500 g ai/ha) of 60%, a pest or weed control at 125 g/ha (giant foxtail; 125 g ai/ha, read-out: Foxtail, Giant plant response rating) of 90% and a pest or weed control at 500 g/ha (giant foxtail; 500 g ai/ha, read-out: Plant response rating, Foxtail, Giant) of 100%. It also gave a pest or weed control at 31 g/ha (galium; 31 g ai/ha, postemergence, visual rating, scale 0 to 100 (0 no effect, 100 complete control), 13 to 15 days, read-out: Galium plant response rating) of 60%, a pest or weed control at 125 g/ha (galium; 125 g ai/ha, postemergence, visual rating, scale 0 to 100 (0 no effect, 100 complete control), read-out: Plant response rating, Galium) of 85% and a pest or weed control at 250 g/ha (galium; 250 g ai/ha, postemergence, read-out: Plant response rating (0 to 100), Galium) of 90%. The pest or weed control at 62 g/ha (galium; Postemergence, 62 g ai/ha, scale 0 to 100 (0 no effect, 100 complete control), 13 to 15 days, read-out: Plant response rating, Galium) was 65%, the “Lambsquarters plant response rating” value (lambsquarters [2]; [5]) was 60 and the pest or weed control at 125 g/ha (lambsquarters [2]; Chenopodium album, post-emergence, 125 g ai/ha, postemergence, visual rating, scale 0 to 100 (0 no effect, 100 complete control), read-out: Plant response rating, Lambsquarters) was 90%. For the same compound, the pest or weed control at 250 g/ha (lambsquarters [2]; Chenopodium album, post-emergence, 250 g ai/ha, postemergence, read-out: Plant response rating (0 to 100), Lambsquarters) was 98%, the pest or weed control at 62 g/ha (lambsquarters [2]; Chenopodium album, post-emergence, Postemergence, 62 g ai/ha, scale 0 to 100 (0 no effect, 100 complete control), 13 to 15 days, read-out: Plant response rating, Lambsquarters) was 80% and the “Pigweed plant response rating (0 to 100 scale)” value (pigweed [3]; 125 g ai/ha) was 100. It also gave a pest or weed control at 500 g/ha (pigweed [3]; Amaranthus retroflexus, pre-emergence, 240 h, 500 g ai/ha, 0 to 100 scale where 0 is no effect and 100 is complete control, read-out: Pigweed plant response rating) of 100%, a pest or weed control at 125 g/ha (waterhemp; 125 g ai/ha, preemergence, scale 0 (no effect) to 100 (complete control), read-out: Waterhemp plant response rating) of 100% and a pest or weed control at 250 g/ha (waterhemp; 250 g ai/ha, preemergence, scale 0 (no effect) to 100 (complete control), read-out: Waterhemp plant response rating) of 100%. For the same compound, the pest or weed control at 62 g/ha (waterhemp; Preemergence, 62 g ai/ha, scale 0 to 100, 0 no effect, 100 complete control, read-out: Plant response rating, Waterhemp) was 100%, the pest or weed control at 125 g/ha (lambsquarters [4]; 125 g ai/ha, preemergence, scale 0 (no effect) to 100 (complete control), read-out: Lambsquarters plant response rating) was 100% and the pest or weed control at 250 g/ha (lambsquarters [4]; 250 g ai/ha, preemergence, scale 0 (no effect) to 100 (complete control), read-out: Lambsquarters plant response rating) was 100%. It also gave a pest or weed control at 62 g/ha (lambsquarters [4]; Preemergence, 62 g ai/ha, scale 0 to 100, 0 no effect, 100 complete control, read-out: Plant response rating, Lambsquarters) of 100%.
